[invAb] = inverted abasic unit; d = 2'-deoxy (DNA); m = 2'-O-methyl; r = 2'-OH (RNA); f = 2'-fluoro
Experiments:
mTSLP mRNA = assay: Initial screening: mouse TSLP mRNA knock-down by RT-PCR (Taqman) after RNAiMax transfection of NIH 3T3 cells; format: cell-based; settings: 10 nM siNA, 24 hrs post-transfection, mean ± s.d., summary from 2 screens
TSLP mRNA = assay: Initial screening: TSLP mRNA knock-down by RT-PCR (Taqman) after RNAiMax transfection of NHLF cells; format: cell-based; settings: 10 nM siNA, human NHLF cells, 24 hrs post-transfection, relative to non-targeting control, normalized to GAPDH; mean ± s.d. from 2 experiments

Row | Substance | % KD mTSLP NIH3T3 (mTSLP mRNA) | % KD TSLP (TSLP mRNA)
1 | 25451-DC: siNA duplex: sense B uAAuuAcAGAAGAGuuucu TTB (SEQ ID NO: 85), antisense AGAAAcucuucuGuAAuuAUU (SEQ ID NO: 86) (sense UAAUUACAGAAGAGUUUCUTT; antisense AGAAACUCUUCUGUAAUUAUU; sense: DNA at AGT, 2'-fluoro at CU, [invAb] at 5' end, 3' end, backbone not given here; antisense: sugars from the 5' end rrrmmfffffffmfmmffmmm, backbone not given here) | −37.4 ± 15.7% | 76 ± 16.4%
2 | 25471-DC: siNA duplex: sense B AGuAGAAAAAAAAAuuAAA TTB (SEQ ID NO: 125), antisense UUUAAuuuuuuuuucuAcuUU (SEQ ID NO: 126) (sense AGUAGAAAAAAAAAUUAAATT; antisense UUUAAUUUUUUUUUCUACUUU; sense: sugars from the 5' end d2 f1 d11 f2 d5, [invAb] at 5' end, 3' end, backbone not given here; antisense: sugars from the 5' end rrrmmfffffffffffmffmm, backbone not given here) | 6.1 ± 9.6% | 22 ± 17.1%
3 | 25455-DC: siNA duplex: sense B AcAGAAGAGuuucuuAAcu TTB (SEQ ID NO: 93), antisense AGUuAAGAAAcucuucuGuUU (SEQ ID NO: 94) (sense ACAGAAGAGUUUCUUAACUTT; antisense AGUUAAGAAACUCUUCUGUUU; sense: DNA at AGT, 2'-fluoro at CU, [invAb] at 5' end, 3' end, backbone not given here; antisense: sugars from the 5' end rrrfmmmmmmfffffffmfmm, backbone not given here) | 4.9 ± 26% | 79 ± 11.3%

From patent US20120022143A1, “RNA Interference Mediated Inhibition of the Thymic Stromal Lymphopoietin (TSLP) Gene Expression Using Short Interfering Nucliec Acid (siNA)” (Merck Sharp & Dohme Corp, priority 2009, published 2012)
